# Measurements from patent US20250282799A1, “SUBSTITUTED PYRIDO[4,3-d]PYRIMIDINES AS KRAS MODULATORS” (Alterome Therapeutics, Inc., priority 2023, published 2025).
# System: KRAS G12V dependent lung adenocarcinoma cell line, NCI-H441
# Test: Cellular pERK (Thr202/Tyr204) FRET/HTRF assay
# Format: cell-based
# Conditions: Homo sapiens, NCI-H441, cellular pERK (Thr202/Tyr204) HTRF, NCI-H441 cells
# Outline: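 Phospho-ERK1/2 (Thr202/Tyr204) quantified by two-antibody HTRF in lysed NCI-H441 cells. Cells seeded overnight, treated with test compounds for 1 hr at 37 °C against DMSO control, then lysed and detected at room temperature; IC50 obtained by curve fitting.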
row,SMILES,IC50 [µM]
1,"[2H]C([2H])(Oc1nc(N2CCOC[C@@H]3[C@@H](F)[C@@H]32)c2cc(F)c(-c3cc(N)cc(C4CC4)c3C(F)(F)F)c(F)c2n1)[C@@]12CCCN1C[C@H](F)C2 [Example 164, 3-cyclopropyl-5-(6,8-difluoro-4-((1R,7R,8R)-8-fluoro-5-oxa-2-azabicyclo[5.1.0]octan-2-yl)-2-(((2R,7aS)-2-fluorotetrahydro-1H-pyrrolizin-7a(5H)-yl)methoxy-d2)quinazolin-7-yl)-4-(trifluoromethyl)aniline]",0.5 to 10
2,"C#Cc1c(F)ccc2cc(O)cc(-c3ncc4c(N5CCCO[C@@H]6C[C@@H]65)nc(OC[C@H]5CCCN5C)nc4c3F)c12 [Example 280, 4-(4-((1R,7S)-2-oxa-6-azabicyclo[5.1.0]octan-6-yl)-8-fluoro-2-(((R)-1-methylpyrrolidin-2-yl)methoxy)pyrido[4,3-d]pyrimidin-7-yl)-5-ethynyl-6-fluoronaphthalen-2-ol]",0.05 to 0.5
3,"Nc1cc(Cl)c(C(F)(F)F)c(-c2ncc3c(N4CCCC[C@H]5[C@H](F)[C@H]54)nc(OC[C@]45C/C(=C\F)CN4CCC54CC4)nc3c2F)c1 [Example 378, 3-chloro-5-(8-fluoro-4-((1S,7R,8S)-8-fluoro-2-azabicyclo[5.1.0]octan-2-yl)-2-(((R,E)-6′-(fluoromethylene)tetrahydrospiro[cyclopropane-1,1′-pyrrolizin]-7a′(5′H)-yl)methoxy)pyrido[4,3-d]pyrimidin-7-yl)-4-(trifluoromethyl)aniline]",0.05 to 0.5
4,"C#Cc1c(F)ccc2cc(N)cc(-c3ncc4c(N5CCOC[C@H]6[C@H](F)[C@H]65)nc(OC[C@]56C/C(=C\F)CN5CCC65CC5)nc4c3C)c12 [Example 430, 5-ethynyl-6-fluoro-4-(4-((1S,7S,8S)-8-fluoro-5-oxa-2-azabicyclo[5.1.0]octan-2-yl)-2-(((R,E)-6-(fluoromethylene)tetrahydrospiro[cyclopropane-1,1′-pyrrolizin]-7a′(5′H)-yl)methoxy)-8-methylpyrido[4,3-d]pyrimidin-7-yl)naphthalen-2-amine]",< 0.05
5,"[2H]C([2H])(Oc1nc(N2CCOCC3C2C3(Cl)Cl)c2cnc(-c3cc(N)cc4ccc(F)c(C#C)c34)c(F)c2n1)[C@@]12CCCN1C[C@H](F)C2 (stereo partly drawn) [Example 240, 4-(4-(8,8-dichloro-5-oxa-2-azabicyclo[5.1.0]octan-2-yl)-8-fluoro-2-(((2R,7aS)-2-fluorotetrahydro-1H-pyrrolizin-7a(5H)-yl)methoxy-d2)pyrido[4,3-d]pyrimidin-7-yl)-5-ethynyl-6-fluoronaphthalen-2-amine]",0.5 to 10
6,"[2H]C([2H])(Oc1nc(N2CCOC[C@@H]3[C@@H](F)[C@@H]32)c2cc(Cl)c(-c3cc(N)cc(C4CC4)c3C(F)(F)F)c(F)c2n1)[C@@]12CCCN1C[C@H](F)C2 [Example 184, 3-(6-chloro-8-fluoro-4-((1R,7R,8R)-8-fluoro-5-oxa-2-azabicyclo[5.1.0]octan-2-yl)-2-(((2R,7aS)-2-fluorotetrahydro-1H-pyrrolizin-7a(5H)-yl)methoxy-d2)quinazolin-7-yl)-5-cyclopropyl-4-(trifluoromethyl)aniline]",0.5 to 10
7,"C#Cc1c(F)ccc2cccc(-c3ncc4c(N5CCOC[C@@H]6[C@@H](F)[C@@H]65)nc(OC[C@@]56CCCN5CC(=C(F)F)C6)nc4c3F)c12 [Example 103, (1R,7R,8R)-2-(2-(((S)-2-(difluoromethylene)tetrahydro-1H-pyrrolizin-7a(5H)-yl)methoxy)-7-(8-ethynyl-7-fluoronaphthalen-1-yl)-8-fluoropyrido[4,3-d]pyrimidin-4-yl)-8-fluoro-5-oxa-2-azabicyclo[5.1.0]octane]",0.5 to 10
8,"[2H]C([2H])(Oc1nc(N2CCOC[C@H]3[C@H](F)[C@H]32)c2cnc(-c3cc(O)c(F)c(C)c3C(F)(F)F)c(F)c2n1)[C@@]12CCCN1C[C@H](F)C2 [Example 330, 2-fluoro-5-(8-fluoro-4-((1S,7S,8S)-8-fluoro-5-oxa-2-azabicyclo[5.1.0]octan-2-yl)-2-(((2R,7aS)-2-fluorotetrahydro-1H-pyrrolizin-7a(5H)-yl)methoxy-d2)pyrido[4,3-d]pyrimidin-7-yl)-3-methyl-4-(trifluoromethyl)phenol]",0.05 to 0.5

# The remaining lines, values ahead:
row,IC50 [µM],SMILES
1,< 0.05,"[2H]C([2H])(F)Oc1c(F)ccc2cc(N)cc(-c3ncc4c(N5CCOC[C@H]6[C@H](F)[C@H]65)nc(OC[C@@]56CCCN5C[C@]5(CC5(F)F)C6)nc4c3F)c12 (single isomer, unassigned) [Example 230]"
2,< 0.05,"C#Cc1c(F)ccc2cc(N)cc(-c3ncc4c(N5CCOC[C@H]6[C@H](F)[C@H]65)nc(OC[C@@]56CCC(C)(C)N5C[C@H](F)C6)nc4c3F)c12 [Example 239, 5-ethynyl-6-fluoro-4-(8-fluoro-2-(((2R,7aS)-2-fluoro-5,5-dimethyltetrahydro-1H-pyrrolizin-7a(5H)-yl)methoxy)-4-((1S,7S,8S)-8-fluoro-5-oxa-2-azabicyclo[5.1.0]octan-2-yl)pyrido[4,3-d]pyrimidin-7-yl)naphthalen-2-amine]"
3,< 0.05,"[2H]C([2H])(Oc1nc(N2CCOC[C@H]3[C@H](F)[C@H]32)c2cc(C(F)(F)F)c(-c3ccc(F)c4sc(N)c(C#N)c34)c(F)c2n1)[C@@]12CCCN1C[C@H](F)C2 (atropisomer, axis not shown; (aS)) [Example 365, 2-amino-7-fluoro-4-((S)-8-fluoro-4-((1S,7S,8S)-8-fluoro-5-oxa-2-azabicyclo[5.1.0]octan-2-yl)-2-(((2R,7aS)-2-fluorotetrahydro-1H-pyrrolizin-7a(5H)-yl)methoxy-d2)-6-(trifluoromethyl)quinazolin-7-yl)benzo[b]thiophene-3-carbonitrile]"
4,< 0.05,"[2H]C([2H])([2H])Oc1c(F)c(F)c(F)c2cc(N)cc(-c3ncc4c(N5CCOC[C@@H]6[C@H]5[C@@]6([2H])F)nc(OC([2H])([2H])[C@@]56CCCN5C[C@H](F)C6)nc4c3F)c12 [Example 119, 6,7,8-trifluoro-4-(8-fluoro-4-((1S,7S,8S)-8-fluoro-5-oxa-2-azabicyclo[5.1.0]octan-2-yl-8-d)-2-(((2R,7aS)-2-fluorotetrahydro-1H-pyrrolizin-7a(5H)-yl)methoxy-d2)pyrido[4,3-d]pyrimidin-7-yl)-5-(methoxy-d3)naphthalen-2-amine]"
5,< 0.05,"C#Cc1c(F)ccc2cc(N)cc(-c3ncc4c(N5CCOC[C@H]6[C@H](F)[C@H]65)nc(OC[C@@]56CCCN5C/C(=C/F)C6)nc4c3C)c12 [Example 426, 5-ethynyl-6-fluoro-4-(4-((1S,7S,8S)-8-fluoro-5-oxa-2-azabicyclo[5.1.0]octan-2-yl)-2-(((S,E)-2-(fluoromethylene)tetrahydro-1H-pyrrolizin-7a(5H)-yl)methoxy)-8-methylpyrido[4,3-d]pyrimidin-7-yl)naphthalen-2-amine]"
6,< 0.05,"[2H]C([2H])(Oc1nc(N2CCOC[C@H]3[C@H](F)[C@H]32)c2cnc(-c3cc(N)cc4ccc(F)c(C#C)c34)c(F)c2n1)[C@@]12CCCN1CC(F)(F)C2 [Example 220, 4-(2-(((S)-2,2-difluorotetrahydro-1H-pyrrolizin-7a(5H)-yl)methoxy-d2)-8-fluoro-4-((1S,7S,8S)-8-fluoro-5-oxa-2-azabicyclo[5.1.0]octan-2-yl)pyrido[4,3-d]pyrimidin-7-yl)-5-ethynyl-6-fluoronaphthalen-2-amine]"

# Same assay, conditions: Homo sapiens, NCI-H441, pERK HTRF, NCI-H441 cells (KRAS G12V)
row,IC50 [µM],SMILES
1,< 0.05,"[2H]C([2H])([2H])Oc1c(F)ccc2cccc(-c3ncc4c(N5CCCO[C@H]6[C@H](F)[C@H]65)nc(OC([2H])([2H])[C@@]56CCCN5C[C@H](F)C6)nc4c3F)c12 [Example 86, (1R,7S,8R)-8-Fluoro-6-(8-fluoro-7-(7-fluoro-8-(methoxy-d3)naphthalen-1-yl)-2-(((2R,7aS)-2-fluorotetrahydro-1H-pyrrolizin-7a(5H)-yl)methoxy-d2)pyrido[4,3-d]pyrimidin-4-yl)-2-oxa-6-azabicyclo[5.1.0]octane]"
2,0.05 to 0.5,"[2H]C([2H])(Oc1nc(N2CCCO[C@@H]3[C@H](F)[C@@H]32)c2cnc(-c3cc(N)cc4cc(F)c(F)c(C#C)c34)c(F)c2n1)[C@@]12CCCN1C[C@H](F)C2 [Example 22, 5-Ethynyl-6,7-difluoro-4-(8-fluoro-4-((1S,7R,8R)-8-fluoro-2-oxa-6-azabicyclo[5.1.0]octan-6-yl)-2-(((2R,7aS)-2-fluorotetrahydro-1H-pyrrolizin-7a(5H)-yl)methoxy-d2)pyrido[4,3-d]pyrimidin-7-yl)naphthalen-2-amine]"
3,< 0.05,"[2H]C([2H])([2H])Oc1c(F)ccc2cccc(-c3ncc4c(N5CCCC[C@H]6[C@H](F)[C@H]65)nc(OC([2H])([2H])[C@@]56CCCN5C[C@H](F)C6)nc4c3F)c12 [Example 68, 8-Fluoro-7-(7-fluoro-8-(methoxy-d3)naphthalen-1-yl)-4-((1S,7R,8S)-8-fluoro-2-azabicyclo[5.1.0]octan-2-yl)-2-(((2R,7aS)-2-fluorotetrahydro-1H-pyrrolizin-7a(5H)-yl)methoxy-d2)pyrido[4,3-d]pyrimidine]"

# Same assay, conditions: cellular pERK HTRF, NCI-H441 (KRAS G12V) cells
row,IC50 [µM],SMILES
1,< 0.05,"[2H]C([2H])(Oc1nc(N2CCOC[C@H]3[C@H](F)[C@H]32)c2cc(C(F)(F)F)c(-c3cccc4sc(N)c(C#N)c34)c(F)c2n1)[C@@]12CCCN1C[C@H](F)C2 (atropisomer, axis not shown; (aS)) [Example 468, 2-amino-4-((R)-8-fluoro-4-((1S,7S,8S)-8-fluoro-5-oxa-2-azabicyclo[5.1.0]octan-2-yl)-2-(((2R,7aS)-2-fluorotetrahydro-1H-pyrrolizin-7a(5H)-yl)methoxy-d2)-6-(trifluoromethyl)quinazolin-7-yl)benzo[b]thiophene-3-carbonitrile]"
